Source: patent US20150374784A1, “COMPOSITIONS AND METHODS FOR REDUCING GERM CELL DEATH” (Los Angeles Biomedical Research Institute at Harbor-UCLA …, priority 2014, published 2015)
Where a name gives a salt, the structure may show the parent alone.

Columns and labels:
Leydig cells = assay: Leydig cell depletion and testosterone levels in rats; assay type: in vivo, rat
male germ cells [1] = conditions: EDS 80 mg/kg IP 3 days before; CP 70 mg/kg BW
[2] = tested on: germ cells in seminiferous tubules; assay: Germ cell apoptosis in mouse seminiferous tubule cultures ex vivo (TUNEL); assay type: cell-based; conditions: 12 hours; for germ cell apoptosis (number of apoptotic germ cells) compared to control: DOX 10 μM (high dose), hydrochloride
Description: A total of 15 young adult (12-13 week-old) mice were used for these ex vivo studies. The animals were sacrificed with a 5% pentobarbital (200 mg/Kg) IP injection. Testes were dissected and after removing the tunica albuginea, seminiferous tubules isolated from testes were cut into small segments under a dissecting microscope and light and dark segments were separated by dissection. Ten to twelve segments were placed (2 mm in length) in each well on a six well plate with 2 ml serum free Ham F-10 culture medium (GIBCO, Life Technologies, Thermo Fisher Scientific Corp., Carlsbad, Calif.) with the following treatments: control (Con, n=10), heat (43° C., 15 minutes, used as a positive control, n=10); HN 10 μg/mL (n=9); DOX 10 mcM (Dox10, n=10); and DOX 10 mcM+Humanin 10 μg/mL (Dox10+HN, n=10). For these experiments, n represents the total number of times the treatment was repeated using different animals. After 12 hours of incubation at 34° C. the seminiferous tubules from each treatment group were used to make “squashed” seminiferous tubule samples on a slide for TUNEL (TdT-mediated dUTP nick-end labeling) assay to detect germ cell apoptosis (Erkkila, et al., 1997; Toppari & Parvinen, 1985). To quantify the rate of germ cell apoptosis under a light microscope at 400× magnification, a square grid fitted within the eyepiece provided a reference area of 62,500 μm^2. The TUNEL positive apoptotic germ cells within the frame of grid were counted in 4 segments of seminiferous tubules in each group. The incidence of germ cell apoptosis was expressed as the number of apoptotic germ cells per mm^2.
A total of 15 mice were used for ex vivo studies. The animals were sacrificed and seminiferous tubules isolated from testes were cut into small segments under a dissecting microscope to identify light (early stages I-IV and late stages XI-XII) of the seminiferous epithelium) and dark (middle stages VII-VIII) segments. Ten to twelve light segments (2 mm in length) were placed per well on a six well plate with 2 ml serum free medium of F-10 Ham nutrient mixture (Gibco, Life Technologies, Grand Island, N.Y.) following these treatments: control (Con, n=15 where n is the number of times the treatment was repeated with segments obtained from different donor animals), heat (43° C., 15 min.; used as a positive control, n=10), HN 10 μg/mL (HN, n=9), doxorubicin 1 μM (Dox1, n=7), doxorubicin 1 μM+HN 10 μg/mL (Dox1+HN, n=7), doxorubicin 10 μM (Dox10, n=10), and doxorubicin 10 μM+HN 10 μg/mL (Dox10+HN, n=10). After 12 hours of incubation at 34° C. with 5% CO2, the seminiferous tubules from the seven treatment groups were used to make “squashed” seminiferous tubule preparations on a slide for TUNEL assay to detect germ cell apoptosis (Erkkila K, et al., 1997). To quantify the rate of germ cell apoptosis, the squashed segments of seminiferous tubules were examined with an American Optical Microscope (Scientific Instruments, Buffalo, N.Y.) with a 40×objective and a 10×eyepiece lens. A square grid fitted within the eyepiece provided a reference area of 62,500 μm^2. The TUNEL positive apoptotic germ cells within the frame of grid were counted in 4 segments of seminiferous tubules in each group. The incidence of germ cell apoptosis was expressed as the number of apoptotic germ cells per mm^2.

[3] = tested on: IGFBP-3, membrane receptor, BAX, HN; conditions: Table 1, description of analogs; cited from earlier work
cells = conditions: Table 1, description of analogs; cited from earlier work
B16 melanoma cells = assay type: cell-based; conditions: B16 cells in culture
Source text: Furthermore, the autophagy induction of humanin may be related to its apparent effects of enhancing longevity observed in other systems.

STAT3 = STAT3 phosphorylation in testis by western blot; assay type: in vivo, mouse; conditions: testis homogenates; for STAT3 phosphorylation (phosphorylated STAT3/STAT3) compared with control: treatment alone; for CP suppressed STAT3 (Ser727) phosphorylation: with CP 200 mg/Kg
Description: (§1) For the HN analog experiments, male mice were divided into seven groups (n=4-5 per group) and received one of the following treatments and sacrificed after 24 hours: 1) vehicle (control); 2) a single intra-peritoneal (IP) injection of HN peptide [HN, 40 mg/Kg body weight (BW)]; 3) a single IP injection of CP (CP, 200 mg/Kg BW); 4) IP injection of CP and HN (CP+HN); 5) a single IP injection of each HN analog (HNG 5 mg/Kg BW, HNG-F6A 5 mg/Kg BW, HN-S7A 40 mg/Kg BW, HN-C8P 40 mg/Kg BW, or HN-L12A 40 mg/Kg BW); 6) IP injection of CP and each HN analog (CP+HNG, HNG-F6A, HN-S7A, HN-C8P, or HN-L12A); and 7) IP injection of CP+HN+HN analog (HN-S7A, HN-C8P, or HN-L12A; to assess whether the analogs has enhancing or inhibitory effect on HN).
(§2) To facilitate testicular fixation by using a whole-body perfusion technique, all animals were injected with heparin (130 IU/100 g BW, IP) 15 min before a lethal injection of sodium pentobarbital (200 mg/kg BW, IP) (Lue Y H, et al., 1999). One testis was removed and weighed after perfusion with saline. Portions of testicular parenchyma were snap frozen in liquid nitrogen, and stored at −80 C for Western blotting. The other testis was fixed by vascular perfusion with Bouin's solution, and processed with routine paraffin embedding for in situ detection of apoptosis.
Western blotting was performed as described previously (Jia Y, et al., 2009). In brief, proteins were denatured and separated by sodium dodecyl sulfate-polyacrylamide gel electrophoresis (SDS-PAGE) system (Invitrogen, Carlsbad, Calif.). After transferring, the Immuno-blot PVDF Membrane (Bio-Rad, Hercules, Calif.) was blocked for 1 h and then probed using anti-STAT3 or anti-pSer727 STAT3 (Cell signaling Technology, Inc., Beverly, Mass.) overnight at 4 C with constant shaking. After washing, membrane was then incubated with an anti-mouse (for STAT3 antibody, Santa Cruz Biotechnology, Santa Cruz, Calif.) or anti-rabbit (for pSer727 STAT3 antibody, Amersham Biosciences, Piscataway, N.J.) IgG-HRP secondary antibody. All antibodies were diluted in blocking buffer. For immunodetection, membrane was incubated with enhanced chemiluminescence solutions per the manufacturer's specifications (Amersham Biosciences, Piscataway, N.J.), and exposed to Hyperfilm ECL (Denville Scientific Inc., Metuchen, N.J.).

male germ cells [4] = assay type: in vivo, mouse; conditions: for effect of adding the analog on the preventive effect of HN against CP-induced germ cell apoptosis: each peptide 40 mg/kg BW; for spontaneous germ cell apoptosis, peptide alone: single IP, 24 hours, no CP; for effect on CP-induced germ cell apoptosis, early+late stages / inhibition of (protection against) CP-induced germ cell apoptosis, early+late stages: stages I-IV and XI-XII; for effect on CP-induced germ cell apoptosis, early+late stages / effect on CP-induced germ cell apoptosis, middle stages: 40 mg/kg BW; for inhibition of (protection against) CP-induced germ cell apoptosis, early+late stages: HN, HN-C8P 40 mg/kg BW
Description: as §1, §2
Detection of apoptotic cells was performed in Bouin's′-fixed, paraffin-embedded testicular sections by the terminal deoxynucleotidyl transferase (TdT)-mediated deoxy-UTP nick end labeling (TUNEL) technique (Sinha Hikim A P, et al., 1997) using an ApopTag-peroxidase kit (Chemicon International, Inc., Temecula, Calif.). Enumeration of the Sertoli cell nuclei with distinct nucleoli and apoptotic germ cell population was quantified at stages I-IV (early stages), stages VII-VIII (middle stages) and stages XI-XII (late stages) of the seminiferous epithelial cycle using an Olympus BH-2 microscope (New Hyde Park, N.Y.). Stages were identified according to the criteria proposed by Russell et al for paraffin sections (Russell L, 1977). The rate of germ cell apoptosis (apoptotic index, AI) was expressed as the number of apoptotic germ cells per Sertoli cells (Sinha Hikim A P, et al., 1997).

[5] = rats, EDS 80 mg/kg, CP 70 mg/kg BW, HN 40 mg/kg BW, with or without EDS pre-treatment

Compound	Characteristics [3]	Cytoprotective Action (cells)	effect of adding the analog on the preventive effect of HN against CP-induced germ cell apoptosis (male germ cells [4])	spontaneous germ cell apoptosis, peptide alone (male germ cells [4])	effect on CP-induced germ cell apoptosis, early+late stages (male germ cells [4])	effect on CP-induced germ cell apoptosis, middle stages (male germ cells [4]; stages VII-VIII)	other results
CS(=O)(=O)OCCOS(C)(=O)=O [EDS, ethane dimethanesulfonate]							Leydig cells in the interstitial spaces (testis histology) (Leydig cells; EDS for three days): depletion of Leydig cells; intratesticular testosterone levels (Leydig cells; [5]): decreased to very low levels; serum testosterone levels (Leydig cells; [5]): decreased to very low levels; germ cell apoptosis at early (I-VI) and late (IX-XIV) stages, EDS pre-treated rats, compared to control (male germ cells [1]): did not significantly increase germ cell apoptosis; germ cell apoptosis in middle (VII-VIII) stages, EDS pre-treated rats (male germ cells [1]): had significant acute cytotoxic effects on germ cells
COc1cccc2c1C(=O)c1c(O)c3c(c(O)c1C2=O)C[C@@](O)(C(=O)CO)C[C@@H]3O[C@H]1C[C@H](N)[C@H](O)[C@H](C)O1 [DOX, doxorubicin hydrochloride, reference compound]							germ cell apoptosis (number of apoptotic germ cells) compared to control [2]: significantly higher number of apoptotic germ cells; germ cell apoptosis (number of apoptotic germ cells) compared to control ([2]; listed as doxorubicin): significantly increased apoptosis; germ cell apoptosis compared with control ([2]; doxorubicin 1 μM (low dose)): increased apoptosis but did not reach statistical difference
MAPRGFSALLLLTSEIDLPVKRRA [HN-C8A, HN mutant, Cys8 to Ala]	Loss of membrane receptor	Not effective, prevents HN self-					
CCN(CC)CCCC(C)Nc1ccnc2cc(Cl)ccc12 (stereo not drawn) [chloroquine]							additive effect of humanin in doxorubicin treated B16 cells, with autophagy inhibitor (B16 melanoma cells): diminished the additive effect of humanin
MAPRGFSPLLLLTSEIDLPVKRRA [HN-C8P]	Loss of BAX binding	Not effective, blocks intracellular HN	did not change the preventive effect of HN	did not change the spontaneous germ cell apoptosis	showed less protection against CP-induced apoptosis	no significant effect in middle (VII-VIII) stages	STAT3 phosphorylation (phosphorylated STAT3/STAT3) compared with control (STAT3): did not change STAT3 phosphorylation; CP suppressed STAT3 (Ser727) phosphorylation (STAT3): restored CP-induced Ser 727-phosphorylation of STAT3; inhibition of (protection against) CP-induced germ cell apoptosis, early+late stages (male germ cells [4]; HNG, HNG-F6A 5 mg/kg BW): ~30%
Cn1cnc(N)c2ncnc1-2 [3-MA]							additive effect of humanin in doxorubicin treated B16 cells, with autophagy inhibitor (B16 melanoma cells): diminished the additive effect of humanin
MAPRGASCLLLLTGEIDLPVKRRA [HNG-F6A]				did not change spontaneous germ cell apoptosis			inhibition of (protection against) CP-induced germ cell apoptosis, early+late stages (male germ cells [4]; HNG, HNG-F6A 5 mg/kg BW): ~38%; prevention of CP-induced germ cell apoptosis, middle stages (male germ cells [4]; stages VII-VIII, HNG, HNG-F6A 5 mg/kg BW): ~42%
HN-L12A: HN with a substitution of alanine for 12th leucine, HN antagonist dimerizes with HN preventing HN binding to receptor (MAPRGFSCLLLATSEIDLPVKRRA)		HN antagonist, forms inactive dimer	completely blocked the preventive effect of HN	did not change the spontaneous germ cell apoptosis	unable to rescue	unable to rescue	
MAPRGASCLLLLTSEIDLPVKRRA [HN-F6A]	Loss of IGFBP-3 binding	Similar/more effective than HN.					
MAPRGFACLLLLTSEIDLPVKRRA [HN-S7A]	Loss of membrane receptor	Not effective, prevents HN self-	did not change the effect of HN on CP-induced apoptosis	did not change the spontaneous germ cell apoptosis	inhibited	had better protective effect than HN	STAT3 phosphorylation (phosphorylated STAT3/STAT3) compared with control (STAT3): did not change STAT3 phosphorylation; CP suppressed STAT3 (Ser727) phosphorylation (STAT3): restored CP-induced Ser 727-phosphorylation of STAT3
